This assay concerns human ENTPD2 engineered B16LM3 clone B5. Description: Human ENTPD2 engineered B16LM3 clone B5 model, combination with A2AR antagonist NIR178. The conditions noted are these: NIR178 p.o. 4 days on and 3 days off, 50 or 200 mg/kg; antibody or isotype 10 mg/kg i.v. day 1. Type of assay: in vivo. The protocol: Human ENTPD2-engineered B16LM3 clone B5 was established in female C57BL/6 mice by subcutaneous injection of 0.5×10^6 cells into the right flank of each mouse. Once tumors reached approximately 50 mm^3, mice were randomized according to tumor volume into treatment groups (n=8 per group). Mice received an intravenous (i.v.) treatment of either anti-ENTPD2 mAb1 at a final dose of 10/mg/kg or a non-specific human IgG1 isotype control 10 mg/kg on day 1 of study. NIR178 was administered per os (p.o.) for 4 days on and 3 days off, starting at the beginning of study at either 50 mg/kg or 200 mg/kg. All doses were adjusted to individual mouse body weights. The study was carried out for thirteen days post treatment initiation and tumor volumes were assessed every other day to assess efficacy.

Turning to `Nc1nc(-n2cccn2)nc(-n2cccn2)c1Br` [NIR178, 5-bromo-2,6-di-(1H-pyrazol-1-yl)pyrimidine-4-amine], the “anti-tumor efficacy” value is “No significant anti-tumor efficacy”.

(Values after patent US20220340685A1, “COMBINATION THERAPY WITH ENTPD2 AND CD73 ANTIBODIES” (Novartis AG, priority 2019, published 2022).)
